The target of the assay is T1, Mfsd2b (Mus musculus, UniProt Q3T9M1).
T1 construct: full-length native transporter in isolated mouse erythrocytes; Mfsd2b knockout erythrocytes as control
T1 sequence (Q3T9M1 1-494): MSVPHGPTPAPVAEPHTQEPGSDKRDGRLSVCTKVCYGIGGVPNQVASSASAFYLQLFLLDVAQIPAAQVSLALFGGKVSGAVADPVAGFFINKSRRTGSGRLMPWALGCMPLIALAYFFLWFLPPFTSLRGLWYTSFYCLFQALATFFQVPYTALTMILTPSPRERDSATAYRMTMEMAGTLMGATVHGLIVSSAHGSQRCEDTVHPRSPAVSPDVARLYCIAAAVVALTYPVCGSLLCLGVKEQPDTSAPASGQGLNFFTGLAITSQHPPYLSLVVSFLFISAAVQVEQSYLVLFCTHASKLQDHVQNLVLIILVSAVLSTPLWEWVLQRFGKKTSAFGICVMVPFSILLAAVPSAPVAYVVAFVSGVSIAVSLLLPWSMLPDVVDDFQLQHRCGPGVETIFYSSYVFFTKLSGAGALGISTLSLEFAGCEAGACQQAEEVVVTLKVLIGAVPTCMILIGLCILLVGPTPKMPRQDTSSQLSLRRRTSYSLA
Put plainly: [[…]-3H]-S1P export, WT versus Mfsd2b KO erythrocytes. Format: cell-based. The following applies: S1P formed inside from [3-3H]-Sph; 0.5% BSA acceptor; pH 7.4; labelled compound.

The structures appear in SMILES notation.

For `CCCCCCCCCCCCC/C=C/[C@@H](O)[C@@H](N)COP(=O)(O)O` [S1P], the “[3-3H]-S1P export, WT versus Mfsd2b KO erythrocytes” value is listed as “Mfsd2b KO erythrocytes showed a significant reduction of S1P transport”.
